Here are results for 48 compounds from patent US20240300940A1, “Phenothiazinyl Compounds and Uses” (Prosetta Biosciences, Inc., priority 2023, published 2024).

Test [1] deals with E. coli ATCC25922. The test can be described thus: MIC assay, serial dilution. As to conditions: for MIC: Escherichia coli, ATCC25922, read-out: Anti-bacterial Activity (E. coli MIC (uM)), E. coli, Table 5.
The subject of test [2] is Hennes-20 cells. The test is described as follows: Hennes-20 oncology screen. In kind it is cell-based. Conditions: 72 h, alamar Blue. The procedure:
To screen compounds for oncology activity Hennes-20 cells were plated at low (500 cells/well) versus high (15,000 cells/well) densities and treated with DMSO (vehicle) or dose-titration of compounds. The rationale for this screen is that an intrinsically toxic compound should kill cells regardless of density, including in Hennes-20 cells. However, a compound that selectively triggers the arrest of proliferation will inhibit cell growth when plated at a low density will appear cytotoxic due to inhibition of cell growth when plated at a low density but will appear non-toxic to cells plated at a high density where the cells are approaching confluence and the readout detected by a cell viability assay is already close to the maximum.
To conduct the Hennes-20 screen, two 96 well plates were seeded with Hennes 20 cells in parallel where one was plated at a density of 500 cells/well and the other was plated at a density of 15,000 cells/well. 90 uL of minimum essential media was added to each well and plates were placed in a 37 degrees Celsius incubator for 24 hours. The next day, 10 ul of media containing dilutions of compound in DMSO were added to each plate. Six wells on each plate received 10 ul of media containing only DMSO. Each well was gently mixed 5 times with a 100 ul pipette. Plates were incubated at 37 degrees Celsius for 72 hours and then 10 uL of alamar Blue was added to each well. Wells were mixed 5 times then incubated at 37 degrees Celsius for […]. Plates were then read at 530/590.
The rationale for the screen is as follows: Hennes-20 cells lack endogenous apoptosis. Cells plated at low density will proliferate and approach confluence in 72 hrs. A drug that arrests proliferation may have its proliferation blocking effect masked by the triggering of endogenous apoptosis. However, in the Hennes line, lacking endogenous apoptosis, such an arrest is manifest as a dose-dependent maintenance at low cell density. Since the high-density cells are plated close to confluence, the difference between Alamar Blue cell survival readings after 72 hrs reflects the ability of the drug to block proliferation in the low density-plated cells. In the high density-plated cells any diminution of Alamar Blue readout vs vehicle control is due to intrinsic toxicity, not proliferation arrest, since cells were already at confluence. Thus, a compound that appears toxic (low Alamar Blue readings after 72 hrs) on the low-density plate, but which appears non-toxic (high Alamar Blue readings after 72 hrs) on the high-density plate, must be arresting proliferation, since intrinsic compound toxicity should be observed at both low and high cell densities, not selectively on the low-density plate.

Usually MIC stands for the lowest concentration found to suppress growth. Broadly, the EC50 is the concentration that produces a half-maximal response. A lower EC50 goes with greater potency.

As to `FC1(F)C2CN(c3ccc4nc5ccc(N6CC7C(C6)C7(F)F)cc5[s+]c4c3)CC21` (stereo not shown) [Compound 2], the MIC in test [1] was found to be 1.6 µM.
For `c1cc2nc3ccc(N4CC5CC5C4)cc3[s+]c2cc1N1CC2CC2C1` (stereo not shown) [Compound 3], the minimal inhibitory concentration (MIC) in test [1] came to 1.6 µM.
`CC1(C)C2CN(c3ccc4nc5c(N6CCCC6)cc(N6CC7C(C6)C7(C)C)cc5[s+]c4c3)CC21` (stereo not shown) [Compound 4]: in test [2], the EC50 is 0.5 µM. Further, the MIC in test [1] was 3.1 µM.
As for `CC1(C)C2CN(c3ccc4nc5c(F)cc(N6CC7C(C6)C7(C)C)cc5[s+]c4c3)CC21` (stereo not shown) [Compound 5], the EC50 in test [2] is less than 0.1 µM. For the same compound, the MIC in test [1] amounted to 6.25 µM.
Taken in the same sequence, the figures for `CC1(C)C2CN(c3ccc4nc5c(N6CC7C(C6)C7(C)C)cc(N6CC7C(C6)C7(C)C)cc5[s+]c4c3)CC21` (stereo not shown) [Compound 6] were 0.5 µM and 6.3 µM.
Take `CC1(C)C2CN(c3ccc4nc5cc(CN)c(N6CC7C(C6)C7(C)C)cc5[s+]c4c3)CC21` (stereo not shown) [Compound 7]: the MIC in test [1] is 6.3 µM.
As for `CC(C)(C)OC(=O)NCc1cc2nc3ccc(N4CC5C(C4)C5(C)C)cc3[s+]c2cc1N1CC2C(C1)C2(C)C` (stereo not shown) [Compound 8], the EC50 in test [2] was less than 2.5 µM. Moreover, in test [1], the MIC was determined as 6.3 µM.
`CC1(C)C2CN(c3ccc4nc5cc(Cl)c(N6CC7C(C6)C7(C)C)cc5[s+]c4c3)CC21` (stereo not shown) [Compound 9]: in test [2], the EC50 was found to be 0.5 µM. Also, the MIC in test [1] was 12.5 µM.
Compound `CCc1cc(N2CC3C(C2)C3(C)C)cc2[s+]c3cc(N4CC5C(C4)C5(C)C)cc(CC)c3nc12` (stereo not shown) [Compound 10] registered an EC50 in test [2] of less than 0.5 µM. In addition, the MIC in test [1] came to 6.25 µM.
With `Cc1cc(N2CC3C(C2)C3(C)C)cc2[s+]c3cc(N4CC5C(C4)C5(C)C)cc(C)c3nc12` (stereo not shown) [Compound 11], the EC50 in test [2] is less than 0.5 µM. In test [1], the MIC is 6.25 µM.
In the case of `CCc1cc(N2CC3C(C2)C3(C)C)cc2[s+]c3cc(N4CC5C(C4)C5(C)C)cc(C)c3nc12` (stereo not shown) [Compound 12], the EC50 in test [2] was less than 0.5 µM. In test [1], the minimum inhibitory concentration (MIC) turned out to be 6.25 µM.
For the compound `CC1(C)C2CN(c3cc(F)c4nc5c(F)cc(N6CC7C(C6)C7(C)C)cc5[s+]c4c3)CC21` (stereo not shown) [Compound 13], the EC50 in test [2] stood at 2.5 µM. Also, in test [1], the MIC was found to be 12.5 µM.
In the case of `Cc1cc(N2CC3C(C2)C3(C)C)cc2[s+]c3c(F)c(N4CC5C(C4)C5(C)C)cc(C)c3nc12` (stereo not shown) [Compound 14], the 50% effective concentration (EC50) in test [2] is less than 0.5 µM. For the same compound, in test [1], the MIC came out at 6.25 µM.
As to `c1cc2nc3ccc(N4CCC5(CCC5)C4)cc3[s+]c2cc1N1CCC2(CCC2)C1` [Compound 17], in test [1], the MIC was 3.1 µM.
Consider `c1ccc2c(c1)Sc1ccccc1N2c1ccc2nc3c(N4CCCC4)cc(N4CCCC4)cc3[s+]c2c1` [Compound 19], for which the MIC in test [1] amounted to 12.5 µM.
Turning to `NCc1cc2nc3ccc(N4CCCC4)cc3[s+]c2cc1N1CCCC1` [Compound 27], the MIC in test [1] stood at 12.5 µM.
On the same count and under the same terms, in the case of `CC1(C)CCCN1c1ccc2nc3ccc(N4CCCCCC4)cc3[s+]c2c1` [Compound 28] it was 12.5 µM.
For the compound `CC1(C)C2CN(c3ccc4nc5ccc(N6CCCCCC6)cc5[s+]c4c3)CC21` (stereo not shown) [Compound 30, 3-[6,6-dimethyl-3-azabicyclo[3.1.0]hexan-N-yl]-7-(azepan-1-yl) phenothiazinium iodide], the minimal inhibitory concentration (MIC) in test [1] came to 0.8 µM.
On the same count and under the same terms, under `CC(C)(C)OC(=O)NC1CCN(c2ccc3nc4ccc(N5CC6C(C5)C6(C)C)cc4[s+]c3c2)C1` (stereo not shown) [Compound 32] stands 6.25 µM; under `Cc1cc(N(C)C)cc2[s+]c3cc(N4CCCC4)cc(C)c3nc12` [Compound 33], 1.6 µM; under `CCc1cccc2[s+]c3cc(N4CCCC4)ccc3nc12` [Compound 37], 6.3 µM.
`CCc1cc(N2CCCC2)cc2[s+]c3cc(N4CCCC4)cc(CC)c3nc12` [Compound 39]: the MIC in test [1] was 3.1 µM.
On to `Cc1cc(N2CCCC2)cc2[s+]c3cc(N4CCCC4)cc(C)c3nc12` [Compound 40], for which the minimum inhibitory concentration (MIC) in test [1] is 1.6 µM.
Consider `Fc1cc(N2CCCC2)cc2[s+]c3cc(N4CCCC4)cc(F)c3nc12` [Compound 44], for which the MIC in test [1] stood at 6.3 µM.
`c1ccc(C2CCN(c3ccc4nc5ccc(N6CCC(c7ccccc7)C6)cc5[s+]c4c3)C2)cc1` (stereo not shown) [Compound 47]: the MIC in test [1] was found to be 3.1 µM.
As to `FC(F)(F)C1CCCN1c1ccc2nc3ccc(N4CCCC4C(F)(F)F)cc3[s+]c2c1` (stereo not shown) [Compound 48], the MIC in test [1] turned out to be 3.1 µM.
`CC(C)(C)OC(=O)NC1CCN(c2ccc3nc4ccc(N5CCC(NC(=O)OC(C)(C)C)C5)cc4[s+]c3c2)C1` (stereo not shown) [Compound 51]: the minimum inhibitory concentration (MIC) in test [1] was 6.3 µM.
Still for that read-out and setting: in the case of `CC1(C)CCCN1c1ccc2nc3ccc(N4CCCC4(C)C)cc3[s+]c2c1` [Compound 52] it was 12.5 µM; in that of `FC1CCN(c2ccc3nc4ccc(N5CCC(F)C5)cc4[s+]c3c2)C1` (stereo not shown) [Compound 54], 25 µM.
For the compound `CCc1cc(C(C)C)cc2[s+]c3cc(N(C)C)cc(CC)c3nc12` [Compound 60], in test [2], the EC50 was less than 2.5 µM.
Regarding `CC1C=CC(C)N1c1ccc2nc3ccc(N4C(C)C=CC4C)cc3[s+]c2c1` (stereo not shown) [Compound 61], in test [1], the MIC amounted to 25 µM.
For `CCN(CC)c1cc(Br)c2nc3c(C(C)(C)C)cc(N(CC)CC)cc3[s+]c2c1` [Compound 63], the response in test [2] was half-maximal at 2.5 µM (EC50).
As for `CCc1cc(N2CCCC2)cc2[s+]c3cc(N4CCCC4)cc(C(C)C)c3nc12` [Compound 64], in test [1] (E. coli, Table 5), the “Anti-bacterial Activity (E. coli MIC (uM))” value turned out to be 6.3 µM.
As to `COCCN(CCOC)c1ccc2nc3c(C(C)(C)C)cc(N(CCOC)CCOC)cc3[s+]c2c1` [Compound 67], the EC50 in test [2] is less than 0.5 µM.
In test [2], `CCCCc1cc(N2CCCC2)cc2[s+]c3cc(N4CCCC4)ccc3nc12` [Compound 70] registered an EC50 of less than 2.5 µM.
Still for that read-out and setting: in the case of `FC(F)(F)c1cc(N2CCCC2)cc2[s+]c3cc(N4CCCC4)ccc3nc12` [Compound 71] it was less than 2.5 µM; in that of `FC(F)(F)c1cc(N2CCCC2)cc2[s+]c3cc(N4CCCC4)cc(N4CCCC4)c3nc12` [Compound 75], less than 2.5 µM; in that of `COc1cc2nc3c(N4CCCC4)cc(N4CCCC4)cc3[s+]c2cc1N1CCCC1` [Compound 76], less than 2.5 µM.
`N#Cc1cc(N2CCCC2)cc2[s+]c3cc(N4CCCC4)cc(N4CCCC4)c3nc12` [Compound 78] showed an EC50 in test [2] of less than 2.5 µM.
Same read-out and setting: in the case of `Cc1cc(N2CCCC2)cc2[s+]c3cc(N4CCCC4)ccc3nc12` [Compound 79] it was less than 12.5 µM; in that of `CCc1cc(N2CCCNCC2)cc2[s+]c3cc(N4CCCC4C)cc(CC)c3nc12` (stereo not shown) [Compound 81], less than 2.5 µM.
For the compound `COc1cc2nc3ccc(N4CCCC4)cc3[s+]c2cc1N1CCCC1` [Compound 84], the EC50 in test [2] was less than 12.5 µM.
Still for that read-out and setting: under `CN1CCN(c2ccc3nc4c(C(C)(C)C)cc(N5CCN(C)CC5)cc4[s+]c3c2)CC1` [Compound 85] stands 12.5 µM; under `Clc1cc(N2CCCC2)cc2[s+]c3cc(N4CCCC4)ccc3nc12` [Compound 86], less than 0.5 µM.
For `CC(C)(C)c1cc(N2CCOCC2)cc2[s+]c3cc(N4CCOCC4)ccc3nc12` [Compound 88], the EC50 in test [2] stood at 12.5 µM.
`CC(C)(C)c1cc(N2CCCC2)cc2[s+]c3cc(N4CCC(C(=N)N)CC4)ccc3nc12` [Compound 89] returned a half-maximal effective concentration (EC50) in test [2] of 12.5 µM.
`CC(C)(C)c1cc(N2CCC(C(=N)N)CC2)cc2[s+]c3cc(N4CCC(C(=N)N)CC4)ccc3nc12` [Compound 90]: the midpoint of the response in test [2], the EC50, lay at 12.5 µM.
Compound `CC(C)(C)c1cc(N2CCC(C(=N)N)CC2)cc2[s+]c3cc(N4CCCC4)ccc3nc12` [Compound 91] showed an EC50 in test [2] of more than 12.5 µM.
